Data set [1] addresses T1, Mu-type opioid receptor (Homo sapiens, UniProt P35372). Kind of data set: Displacement of [3H]DAMGO from mu opioid receptor (unknown origin). On the technique in general: Loss of bound radioactivity is the signal in a displacement assay; it reports binding, not function.
Data set [2] concerns the target Mu-type opioid receptor (Cavia porcellus, UniProt P97266). Kind of data set: Agonist activity at mu opioid receptor in guinea pig ileum assessed as inhibition of electrically-stimulated muscle contraction. It is filed as tissue-based.
Data set [3] addresses Delta-type opioid receptor (Mus musculus, UniProt P32300). Kind of data set: Agonist activity at delta opioid receptor in mouse vas deferens assessed as inhibition of electrically-stimulated muscle contraction. Format: tissue-based.
In data set [4] the target is T2, Delta-type opioid receptor (Homo sapiens, UniProt P41143). The experiment in a line: Displacement of [3H]DPDPE from delta opioid receptor (unknown origin).
T2 sequence (P41143 whole entry): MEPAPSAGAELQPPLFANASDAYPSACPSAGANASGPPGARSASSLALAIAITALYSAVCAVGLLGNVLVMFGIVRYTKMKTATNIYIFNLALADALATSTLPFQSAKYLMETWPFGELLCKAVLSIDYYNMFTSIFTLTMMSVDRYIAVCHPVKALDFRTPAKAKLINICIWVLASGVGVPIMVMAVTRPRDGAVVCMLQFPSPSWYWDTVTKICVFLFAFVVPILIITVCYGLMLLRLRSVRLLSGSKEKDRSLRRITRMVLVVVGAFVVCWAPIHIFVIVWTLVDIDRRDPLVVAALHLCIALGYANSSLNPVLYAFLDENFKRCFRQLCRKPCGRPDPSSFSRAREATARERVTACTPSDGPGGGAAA
In data set [5] the target is T2, Delta-type opioid receptor. Kind of data set: Agonist activity at delta opioid receptor (unknown origin) expressed in HEK293 cells assessed as inhibition of forskolin-induced cAMP accumulation after 30 mins. It is filed as functional, cell-based.
Data set [6] addresses T2, Delta-type opioid receptor. Kind of data set: Agonist activity at GFP-fused delta opioid receptor (unknown origin) expressed in HEK293 cells assessed as recruitment of beta-arrestin-2 after 10 mins by BRET assay. It is filed as functional, cell-based. (In BRET a luciferase serves as donor, and the signal depends on an acceptor being close.)
The target in data set [7] is T1, Mu-type opioid receptor. The experiment in a line: Potency index, ratio of DAMGO EC50 to compound EC50 for mu opioid receptor (unknown origin) by beta-arrestin-2 recruitment assay. In general terms: Arrestin recruitment assays detect the binding of arrestin to an activated receptor.
Data set [8] has as its target Delta-type opioid receptor (Rattus norvegicus, UniProt P33533). The experiment in a line: Displacement of [3H]deltorphin-2 from delta opioid receptor in Sprague-Dawley rat brain P2 synaptosomal membranes.
Data set [9] concerns the target Mu-type opioid receptor (Rattus norvegicus, UniProt P33535). The experiment in a line: Displacement of [3H]DAMGO from mu opioid receptor in Sprague-Dawley rat brain P2 synaptosomal membranes.
Data set [10] concerns the target T2, Delta-type opioid receptor. Conditions: HEK293, at 0.1 to 10 µM.
Data set [11] has as its target T1, Mu-type opioid receptor. The conditions noted are these: HEK293, at 100 µM.
Data set [12] deals with T2, Delta-type opioid receptor. The conditions noted are these: HEK293, at 100 µM.
Data set [13] has as its target T3, Kappa-type opioid receptor (Homo sapiens, UniProt P41145). The conditions noted are these: HEK293, at 0.1 to 10 µM.
Data set [14] has as its target T1, Mu-type opioid receptor. Conditions: HEK293, at 1 µM.
Data set [15] deals with T1, Mu-type opioid receptor. Kind of data set: Intrinsic efficacy at GFP-fused mu opioid receptor (unknown origin) expressed in HEK293 cells assessed as recruitment of beta-arrestin-2 after 10 mins by BRET assay relative to untreated control. It is filed as cell-based. Conditions: hek293, 10 min.
In data set [16] the target is T1, Mu-type opioid receptor. The experiment in a line: Agonist activity at GFP-fused mu opioid receptor (unknown origin) expressed in HEK293 cells assessed as recruitment of beta-arrestin-2 after 10 mins by BRET assay. Format: cell-based. Conditions: read-out: EC50.
Data set [17] has as its target T3, Kappa-type opioid receptor. Kind of data set: Agonist activity at GFP-fused kappa opioid receptor (unknown origin) expressed in HEK293 cells assessed as recruitment of beta-arrestin-2 after 10 mins by BRET assay. Format: cell-based.
The target in data set [18] is T2, Delta-type opioid receptor. Conditions: HEK293, at 100 µM. The source holds these as a separate data set.
Data set [19] can be described thus: Displacement of [3H]DPDPE from delta opioid receptor in guinea pig brain membranes after 1 hr. Format: cell membranes, Cavia porcellus, Membrane.

The values below come from ChEMBL document CHEMBL3232856, “Endomorphin analogues with mixed μ-opioid (MOP) receptor agonism/δ-opioid (DOP) receptor antagonism and lacking β-arrestin2 recruitment activity” (Bioorg Med Chem, 2014).

Activity calls are given as the source filed them. No cut-off for these calls is given here. Residues, ends and D or L forms follow the SMILES beside them.

What is called Ki is a dissociation constant, usually derived from enzyme kinetics or from competition with a known ligand. Broadly, the IC50 is the concentration that inhibits the measured activity by half. A word on the EC50: it is the concentration giving half of the maximal effect.

Chain of Mu-type opioid receptor (Cavia porcellus, UniProt P97266) (P97266 whole entry): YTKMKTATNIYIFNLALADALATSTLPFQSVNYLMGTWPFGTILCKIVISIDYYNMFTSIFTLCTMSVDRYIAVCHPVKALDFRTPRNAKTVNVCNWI
T1 sequence (P35372 whole entry): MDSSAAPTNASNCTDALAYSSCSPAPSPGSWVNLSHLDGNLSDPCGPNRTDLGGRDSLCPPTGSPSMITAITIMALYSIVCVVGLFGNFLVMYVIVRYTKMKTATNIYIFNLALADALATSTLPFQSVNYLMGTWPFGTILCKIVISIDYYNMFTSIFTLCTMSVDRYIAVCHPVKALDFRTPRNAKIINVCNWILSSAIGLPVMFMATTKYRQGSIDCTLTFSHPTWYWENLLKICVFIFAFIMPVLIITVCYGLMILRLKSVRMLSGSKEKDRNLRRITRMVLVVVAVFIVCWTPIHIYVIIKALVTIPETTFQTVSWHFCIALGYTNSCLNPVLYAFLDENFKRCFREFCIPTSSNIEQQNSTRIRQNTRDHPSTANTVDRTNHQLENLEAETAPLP
Chain of Delta-type opioid receptor (Mus musculus, UniProt P32300) (P32300 whole entry): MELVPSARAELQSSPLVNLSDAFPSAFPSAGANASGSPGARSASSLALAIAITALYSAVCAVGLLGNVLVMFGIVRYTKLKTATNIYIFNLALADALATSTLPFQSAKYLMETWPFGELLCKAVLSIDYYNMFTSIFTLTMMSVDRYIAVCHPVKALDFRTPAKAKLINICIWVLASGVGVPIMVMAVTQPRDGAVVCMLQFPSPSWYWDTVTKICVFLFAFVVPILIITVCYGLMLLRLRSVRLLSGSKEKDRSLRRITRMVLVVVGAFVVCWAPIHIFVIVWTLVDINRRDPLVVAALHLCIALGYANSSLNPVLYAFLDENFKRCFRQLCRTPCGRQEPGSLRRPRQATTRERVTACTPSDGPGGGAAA
T3 sequence (P41145 whole entry): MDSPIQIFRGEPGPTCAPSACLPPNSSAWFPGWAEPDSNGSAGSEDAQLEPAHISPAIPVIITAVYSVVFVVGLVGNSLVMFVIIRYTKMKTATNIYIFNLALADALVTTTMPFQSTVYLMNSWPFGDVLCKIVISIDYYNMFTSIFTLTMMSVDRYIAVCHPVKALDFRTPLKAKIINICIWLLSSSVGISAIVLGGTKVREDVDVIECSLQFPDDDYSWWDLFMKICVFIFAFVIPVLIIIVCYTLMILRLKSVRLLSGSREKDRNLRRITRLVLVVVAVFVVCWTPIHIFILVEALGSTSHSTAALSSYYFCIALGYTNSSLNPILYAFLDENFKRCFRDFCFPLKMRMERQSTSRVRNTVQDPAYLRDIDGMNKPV
Chain of Mu-type opioid receptor (Rattus norvegicus, UniProt P33535) (P33535 whole entry): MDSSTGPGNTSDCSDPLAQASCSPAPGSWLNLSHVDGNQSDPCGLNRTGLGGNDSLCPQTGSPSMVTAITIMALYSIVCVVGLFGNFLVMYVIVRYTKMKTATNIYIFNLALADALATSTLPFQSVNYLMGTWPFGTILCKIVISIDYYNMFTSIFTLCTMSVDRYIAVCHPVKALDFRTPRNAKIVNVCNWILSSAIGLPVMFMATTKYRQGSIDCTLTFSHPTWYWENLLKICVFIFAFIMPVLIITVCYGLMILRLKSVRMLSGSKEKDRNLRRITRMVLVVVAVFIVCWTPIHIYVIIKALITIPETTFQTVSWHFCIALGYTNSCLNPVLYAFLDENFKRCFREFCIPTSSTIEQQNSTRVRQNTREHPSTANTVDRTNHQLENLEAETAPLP
Chain of Delta-type opioid receptor (Rattus norvegicus, UniProt P33533) (P33533 whole entry): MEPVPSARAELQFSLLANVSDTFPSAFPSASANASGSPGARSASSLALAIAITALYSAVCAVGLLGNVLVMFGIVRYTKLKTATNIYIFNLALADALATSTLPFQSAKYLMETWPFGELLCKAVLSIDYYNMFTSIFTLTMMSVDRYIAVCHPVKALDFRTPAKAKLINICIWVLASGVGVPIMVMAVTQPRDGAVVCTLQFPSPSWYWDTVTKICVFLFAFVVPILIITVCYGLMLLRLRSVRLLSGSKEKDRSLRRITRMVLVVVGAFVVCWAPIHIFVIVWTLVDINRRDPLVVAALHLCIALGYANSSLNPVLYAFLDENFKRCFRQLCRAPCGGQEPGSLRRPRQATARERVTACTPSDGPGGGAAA

Regarding `Cc1cc(O)cc(C)c1C[C@H](N)C(=O)N1CCC[C@H]1C(=O)N[C@@H](Cc1ccccc1)C(N)=O` (HELM PEPTIDE1{[Cc1cc(O)cc(C)c1C[C@H](N)C(=O)[*:2]].P.F.[am]}$$$$V2.0), the Ki at Mu-type opioid receptor [1] worked out at 0.12 nM; in data set [4], 53.2 nM. Also, the concentration for half-maximal inhibition (IC50) on Mu-type opioid receptor [2] is 2.33 nM; in data set [3] it was 113 nM.

Consider `Cc1cc(O)cc(C)c1C[C@H](N)C(=O)N1CCC[C@H]1C(=O)N[C@@H](Cc1c[nH]c2ccccc12)C(N)=O` (HELM PEPTIDE1{[Cc1cc(O)cc(C)c1C[C@H](N)C(=O)[*:2]].P.W.[am]}$$$$V2.0), for which the IC50 in [5] is under 100 nM; on Mu-type opioid receptor [2], 10.4 nM; in data set [3] it was over 10000 nM. For the same molecule, the 50% effective concentration (EC50) result was “Not Active” in data set [6], 6.3 nM on Mu-type opioid receptor [16] and “Not Active” in data set [17]. Moreover, the “Ratio EC50” value at Mu-type opioid receptor [7] is recorded as 60. The values for the Ki (in data set [8]; on Mu-type opioid receptor [9]) were 66.4 nM and 0.21 nM, respectively. Further, the inhibition entry (in data set [10]; at Mu-type opioid receptor [11]; in data set [13]; at Mu-type opioid receptor [14]) was “Active” in each case. Further, the inhibition entry in data set [12] and in data set [18] was “inactive” each time. Further, the Ratio on Mu-type opioid receptor [15] is listed as 0.6.

For the molecule `CC(C)C[C@@H](NC(=O)[C@H](Cc1ccccc1)NC(=O)CNC(=O)[C@@H](C)NC(=O)[C@@H](N)Cc1ccc(O)cc1)C(=O)O` [DADLE], the IC50 on Mu-type opioid receptor [2] was determined as 13.4 nM. For the same molecule, the Ki in data set [19] came to 0.3 nM.
